Measurements reported in patent US20230093861A1, “RAPAMYCIN ANALOGS AS MTOR INHIBITORS” (Revolution Medicines, Inc., priority 2017, published 2023).

Legend:
P-P70S6K (T389) = assay: Cell based AlphaLISA assay, inhibition of P-P70S6K (T389) (mTORC1 substrate phosphorylation) in MDA-MB-468 cells; conditions: Homo sapiens, 4 h, AlphaLISA, two to four hours at 37° C., read-out: pIC50 for Inhibition of mTORC1 and mTORC2 Substrate Phosphorylation, P-P70S6K-(T389) (converted)
In short: (§1)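 AlphaLISA SureFire Ultra detection of phosphorylated substrate in lysed cells; duplicate Alpha reads; control-normalized IC50 fitting.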

P-4E-BP1 (T37/46) = assay: Cell based AlphaLISA assay, inhibition of P-4E-BP1 (T37/46) (mTORC1 substrate phosphorylation) in MDA-MB-468 cells; conditions: Homo sapiens, MDA-MB-468, 4 h, AlphaLISA, two to four hours at 37° C., read-out: pIC50 for Inhibition of mTORC1 and mTORC2 Substrate Phosphorylation, P-4E-BP1-(T37/46) (converted)
In short: as §1

P-Akt (S473) = assay: Cell based AlphaLISA assay, inhibition of P-Akt (S473) (mTORC2 substrate phosphorylation) in MDA-MB-468 cells; conditions: Homo sapiens, MDA-MB-468, 4 h, AlphaLISA, two to four hours at 37° C., read-out: pIC50 for Inhibition of mTORC1 and mTORC2 Substrate Phosphorylation, p-AKT 1/2/3 -(S473) (converted)
In short: as §1

Compound | IC50 (P-P70S6K (T389)) [nM] | IC50 (P-4E-BP1 (T37/46)) [nM] | IC50 (P-Akt (S473)) [nM]
CO[C@H]1C[C@@H]2CC[C@@H](C)[C@@](O)(O2)C(=O)C(=O)N2CCCC[C@H]2C(=O)O[C@H]([C@H](C)C[C@@H]2CC[C@H](n3cc(COC(=O)NCCOCCOCCOCCC(=O)NCCOCCOCCOCCC(=O)NCCCCn4nc(-c5ccc6oc(N)nc6c5)c5c(N)ncnc54)nn3)[C@H](OC)C2)C/C(=N/OCc2ccccc2)[C@H](C)/C=C(\C)[C@@H](O)[C@@H](OC)C(=O)[C@H](C)C[C@H](C)/C=C/C=C/C=C/1C [Example 156] | > 1000 | > 1000 | > 1000
CO[C@H]1C[C@@H]2CC[C@@H](C)[C@@](O)(O2)C(=O)C(=O)N2CCCC[C@H]2C(=O)O[C@H]([C@H](C)C[C@@H]2CC[C@H](n3cc(COC(=O)NCCOCCOCCOCCC(=O)NCCOCCOCCC(=O)NCCCCn4nc(-c5ccc6oc(N)nc6c5)c5c(N)ncnc54)nn3)[C@H](OC)C2)C/C(=N/OC(C)(C)C)[C@H](C)/C=C(\C)[C@@H](O)[C@@H](OC)C(=O)[C@H](C)C[C@H](C)/C=C/C=C/C=C/1C [Example 158] | > 1000 | > 1000 | > 1000
CO/N=C1/C[C@@H]([C@H](C)C[C@@H]2CC[C@H](n3cc(COC(=O)NCCOCCOCCOCCC(=O)NCCOCCOCCC(=O)NCCCCn4nc(-c5ccc6oc(N)nc6c5)c5c(N)ncnc54)nn3)[C@H](OC)C2)OC(=O)[C@@H]2CCCCN2C(=O)C(=O)[C@]2(O)O[C@@H](CC[C@H]2C)C[C@H](OC)/C(C)=C/C=C/C=C/[C@@H](C)C[C@@H](C)C(=O)[C@H](OC)[C@H](O)/C(C)=C/[C@H]1C [Example 151] | 10 to 1000 | 31.6 to 1000 | > 1000
COc1cccc2cc(-c3nc([C@H]4CC[C@H](C(=O)NCCOCCOCCOCCOCCOCCOCCOCCOCCn5cc(CCCCO[C@@H]6CC[C@@H](C[C@@H](C)[C@@H]7CC(=O)[C@H](C)/C=C(\C)[C@@H](O)[C@@H](OC)C(=O)[C@H](C)C[C@H](C)/C=C/C=C/C=C(\C)[C@@H](OC)C[C@@H]8CC[C@@H](C)[C@@](O)(O8)C(=O)C(=O)N8CCCC[C@H]8C(=O)O7)C[C@H]6OC)nn5)CC4)n4ncnc(N)c34)[nH]c12 [Example 108] | < 1 | < 3.16 | 3.16 to 31.6
CO[C@H]1C[C@@H]2CC[C@@H](C)[C@@](O)(O2)C(=O)C(=O)N2CCCC[C@H]2C(=O)O[C@H]([C@H](C)C[C@@H]2CC[C@H](n3cc(CCCC(=O)NCCOCCOCCOCCC(=O)NCCOCCOCCC(=O)NCCCCn4nc(-c5ccc6oc(N)nc6c5)c5c(N)ncnc54)nn3)[C@H](OC)C2)C/C(=N/OC(C)(C)C)[C@H](C)/C=C(\C)[C@@H](O)[C@@H](OC)C(=O)[C@H](C)C[C@H](C)/C=C/C=C/C=C/1C [Example 176] | 10 to 1000 | > 1000 | > 1000
CO[C@H]1C[C@@H]2CC[C@@H](C)[C@@](O)(O2)C(=O)C(=O)N2CCCC[C@H]2C(=O)O[C@H]([C@H](C)C[C@@H]2CC[C@@H](OCCCCc3cn(CCOCCOCCOCCOCCOCCOCCC(=O)N4CCC(Cn5nc(-c6ccc7oc(N)nc7c6)c6c(N)ncnc65)CC4)nn3)[C@H](OC)C2)CC(=O)[C@H](C)/C=C(\C)[C@@H](O)[C@@H](OC)C(=O)[C@H](C)C[C@H](C)/C=C/C=C/C=C/1C [Example 91] | < 1 | < 3.16 | < 3.16
CO[C@H]1C[C@@H]2CC[C@@H](C)[C@@](O)(O2)C(=O)C(=O)N2CCCC[C@H]2C(=O)O[C@H]([C@H](C)C[C@@H]2CC[C@H](n3cc(COC(=O)NCCOCCOCCOCCC(=O)NCCOCCOCCC(=O)NCCCCn4nc(-c5cc6cc(O)ccc6[nH]5)c5c(N)ncnc54)nn3)[C@H](OC)C2)C[C@@H](OC)[C@H](C)/C=C(\C)[C@@H](O)[C@@H](OC)C(=O)[C@H](C)C[C@H](C)/C=C/C=C/C=C/1C [Example 144] | 10 to 1000 | > 1000 | > 1000
CO[C@H]1C[C@@H]2CC[C@@H](C)[C@@](O)(O2)C(=O)C(=O)N2CCCC[C@H]2C(=O)O[C@H]([C@H](C)C[C@@H]2CC[C@H](n3cc(CCCC(=O)NCCOCCOCCOCCOCCC(=O)NCCOCCOCCOCCOCCC(=O)NCCCCn4nc(-c5ccc6oc(N)nc6c5)c5c(N)ncnc54)nn3)[C@H](OC)C2)CC(=O)[C@H](C)/C=C(\C)[C@@H](O)[C@@H](OC)C(=O)[C@H](C)C[C@H](C)/C=C/C=C/C=C/1C [Example 134] | 1 to 10 | 3.16 to 31.6 | 3.16 to 31.6
CO[C@H]1C[C@@H]2CC[C@@H](C)[C@@](O)(O2)C(=O)C(=O)N2CCCC[C@H]2C(=O)O[C@H]([C@H](C)C[C@@H]2CC[C@H](n3nncc3-c3cccc(-c4cnc(N5CCN(Cc6cn(CCOCCOCCOCCOCCC(=O)NCCCCn7nc(-c8ccc9oc(N)nc9c8)c8c(N)ncnc87)nn6)CC5)nc4)c3)[C@H](OC)C2)CC(=O)[C@H](C)/C=C(\C)[C@@H](O)[C@@H](OC)C(=O)[C@H](C)C[C@H](C)/C=C/C=C/C=C/1C [Example 30] | < 1 | < 3.16 | 3.16 to 31.6
CCO[C@@H]1C[C@@H]([C@H](C)C[C@@H]2CC[C@@H](O)[C@H](OC)C2)OC(=O)[C@@H]2CCCCN2C(=O)C(=O)[C@]2(O)O[C@@H](CC[C@H]2C)C[C@H](OC)/C(C)=C/C=C/C=C/[C@@H](C)C[C@@H](C)C(=NOCc2cn(CCOCCOCCOCCOCCOCCOCCC(=O)NCCCCn3nc(-c4ccc5oc(N)nc5c4)c4c(N)ncnc43)nn2)[C@H](OC)[C@H](O)/C(C)=C/[C@H]1C [Example 65] | 1 to 10 | 3.16 to 31.6 | 31.6 to 1000
CO[C@H]1C[C@@H]2CC[C@@H](C)[C@@](O)(O2)C(=O)C(=O)N2CCCC[C@H]2C(=O)O[C@H]([C@H](C)C[C@@H]2CC[C@H](n3nncc3-c3cccc(-c4cnc(N5CCN(S(=O)(=O)CCc6cn(CCOCCOCCOCCOCC(=O)NCCCCn7nc(-c8ccc9oc(N)nc9c8)c8c(N)ncnc87)nn6)CC5)nc4)c3)[C@H](OC)C2)CC(=O)[C@H](C)/C=C(\C)[C@@H](O)[C@@H](OC)C(=O)[C@H](C)C[C@H](C)/C=C/C=C/C=C/1C [Example 37] | < 1 | < 3.16 | 3.16 to 31.6
CO[C@H]1C[C@@H]2CC[C@@H](C)[C@@](O)(O2)C(=O)C(=O)N2CCCC[C@H]2C(=O)O[C@H]([C@H](C)C[C@@H]2CC[C@H](n3cc(CCCC(=O)NCCOCCOCCOCCC(=O)NCCOCCOCCOCCC(=O)NCCCCn4nc(-c5ccc6oc(N)nc6c5)c5c(N)ncnc54)nn3)[C@H](OC)C2)C[C@@H](OC)[C@H](C)/C=C(\C)[C@@H](O)[C@@H](OC)C(=O)[C@H](C)C[C@H](C)/C=C/C=C/C=C/1C [Example 164] | < 1 | 3.16 to 31.6 | 31.6 to 1000
CO[C@H]1C[C@@H]2CC[C@@H](C)[C@@](O)(O2)C(=O)C(=O)N2CCCC[C@H]2C(=O)O[C@H]([C@H](C)C[C@@H]2CC[C@H](n3cc(COC(=O)NCCOCCOCCOCCC(=O)NCCOCCOCCOCCOCCC(=O)NCCCCn4nc(-c5ccc6oc(N)nc6c5)c5c(N)ncnc54)nn3)[C@H](OC)C2)CC(=O)[C@H](C)/C=C(\C)[C@@H](O)[C@@H](OC)C(=O)[C@H](C)C[C@H](C)/C=C/C=C/C=C/1C [Example 124] | 1 to 10 | 3.16 to 31.6 | 3.16 to 31.6
CO[C@H]1C[C@@H]2CC[C@@H](C)[C@@](O)(O2)C(=O)C(=O)N2CCCC[C@H]2C(=O)O[C@H]([C@H](C)C[C@@H]2CC[C@H](n3cc(CCCC(=O)NCCOCCOCCOCCC(=O)NCCOCCOCCC(=O)NCCCCn4nc(-c5ccc6oc(N)nc6c5)c5c(N)ncnc54)nn3)[C@H](OC)C2)C/C(=N/OCc2ccccc2)[C@H](C)/C=C(\C)[C@@H](O)[C@@H](OC)C(=O)[C@H](C)C[C@H](C)/C=C/C=C/C=C/1C [Example 173] | 10 to 1000 | > 1000 | > 1000
CO[C@H]1C[C@@H]2CC[C@@H](C)[C@@](O)(O2)C(=O)C(=O)N2CCCC[C@H]2C(=O)O[C@H]([C@H](C)C[C@@H]2CC[C@@H](OCc3cccc(-c4cnc(N5CCN(Cc6cn(CCOCCOCCOCCOCCOCCC(=O)NCCCCn7nc(-c8ccc9oc(N)nc9c8)c8c(N)ncnc87)nn6)CC5)nc4)c3)[C@H](OC)C2)CC(=O)[C@H](C)/C=C(\C)[C@@H](O)[C@@H](OC)C(=O)[C@H](C)C[C@H](C)/C=C/C=C/C=C/1C [Example 20] | < 1 | < 3.16 | 3.16 to 31.6
CO[C@H]1C[C@@H]2CC[C@@H](C)[C@@](O)(O2)C(=O)C(=O)N2CCCC[C@H]2C(=O)O[C@H]([C@H](C)C[C@@H]2CC[C@H](n3cc(CCCC(=O)NCCOCCOCCOCCC(=O)NCCOCCOCCOCCOCCC(=O)NCCCCn4nc(-c5ccc6oc(N)nc6c5)c5c(N)ncnc54)nn3)[C@H](OC)C2)CC(=O)[C@H](C)/C=C(\C)[C@@H](O)[C@@H](OC)C(=O)[C@H](C)C[C@H](C)/C=C/C=C/C=C/1C [Example 132] | 1 to 10 | 3.16 to 31.6 | 31.6 to 1000
CO[C@H]1C[C@@H]2CC[C@@H](C)[C@@](O)(O2)C(=O)C(=O)N2CCCC[C@H]2C(=O)O[C@H]([C@H](C)C[C@@H]2CC[C@H](n3cc(CCCC(=O)NCCOCCOCCOCCC(=O)NCCOCCOCCOCCC(=O)NCCCCn4nc(-c5cc6cc(O)ccc6[nH]5)c5c(N)ncnc54)nn3)[C@H](OC)C2)C/C(=N/OC(C)(C)C)[C@H](C)/C=C(\C)[C@@H](O)[C@@H](OC)C(=O)[C@H](C)C[C@H](C)/C=C/C=C/C=C/1C [Example 178] | 10 to 1000 | > 1000 | > 1000
